The source of these data is paper PMC11932207, “Regulating AMPA Receptors with Isoxazole-4-Carboxamide Derivatives: An Electrophysiological Study” (Journal of Xenobiotics, 2025).

One may read the IC50 as the concentration needed to halve the response being measured.

Each structure is given as a SMILES string. Read-outs that look alike come from different tables or passages of the source.

Type in all cases: cell-based
One assay deals with T1, GluN1a/2A (Homo sapiens, UniProt Q05586+Q12879).
T1 construct: expressed in transfected cells; host or cells: HEK293t cells
T1 sequence (Q12879 23-1464, other chains not shown): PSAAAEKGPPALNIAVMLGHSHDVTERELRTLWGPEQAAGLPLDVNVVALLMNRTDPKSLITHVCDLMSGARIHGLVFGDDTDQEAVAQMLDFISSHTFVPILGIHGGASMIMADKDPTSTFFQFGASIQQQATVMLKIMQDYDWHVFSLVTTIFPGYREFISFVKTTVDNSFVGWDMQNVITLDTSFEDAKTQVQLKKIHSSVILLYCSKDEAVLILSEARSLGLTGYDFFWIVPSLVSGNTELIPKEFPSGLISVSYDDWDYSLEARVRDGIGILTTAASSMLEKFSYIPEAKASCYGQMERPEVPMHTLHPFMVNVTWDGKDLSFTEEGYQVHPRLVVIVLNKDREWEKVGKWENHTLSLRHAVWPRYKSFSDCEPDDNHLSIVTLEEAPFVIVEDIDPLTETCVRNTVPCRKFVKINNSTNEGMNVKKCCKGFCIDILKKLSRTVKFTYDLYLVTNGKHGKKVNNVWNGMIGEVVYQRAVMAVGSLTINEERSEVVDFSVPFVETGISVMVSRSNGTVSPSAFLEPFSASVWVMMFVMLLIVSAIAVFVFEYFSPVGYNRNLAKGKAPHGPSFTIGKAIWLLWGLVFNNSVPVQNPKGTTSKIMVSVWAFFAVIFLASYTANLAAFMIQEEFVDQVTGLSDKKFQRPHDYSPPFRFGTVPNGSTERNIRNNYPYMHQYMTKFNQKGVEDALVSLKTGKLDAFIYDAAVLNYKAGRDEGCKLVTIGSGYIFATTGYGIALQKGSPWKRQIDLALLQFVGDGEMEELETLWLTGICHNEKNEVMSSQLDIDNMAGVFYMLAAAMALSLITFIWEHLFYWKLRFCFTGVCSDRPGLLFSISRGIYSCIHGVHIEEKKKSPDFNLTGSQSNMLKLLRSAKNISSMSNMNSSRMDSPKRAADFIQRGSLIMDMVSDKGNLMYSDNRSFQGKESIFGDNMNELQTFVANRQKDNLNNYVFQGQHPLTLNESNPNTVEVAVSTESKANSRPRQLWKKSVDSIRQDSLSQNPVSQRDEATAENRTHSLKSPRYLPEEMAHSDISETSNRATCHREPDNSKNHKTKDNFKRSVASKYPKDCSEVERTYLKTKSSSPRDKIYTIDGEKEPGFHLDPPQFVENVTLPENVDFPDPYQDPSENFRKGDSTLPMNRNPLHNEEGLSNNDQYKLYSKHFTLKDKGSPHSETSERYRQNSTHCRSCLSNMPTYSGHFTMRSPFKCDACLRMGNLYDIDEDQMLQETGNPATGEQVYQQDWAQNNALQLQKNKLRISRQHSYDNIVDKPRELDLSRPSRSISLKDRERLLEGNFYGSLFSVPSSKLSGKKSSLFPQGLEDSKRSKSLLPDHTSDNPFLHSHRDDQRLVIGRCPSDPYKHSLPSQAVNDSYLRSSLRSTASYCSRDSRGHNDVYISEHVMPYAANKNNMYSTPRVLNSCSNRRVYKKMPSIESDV
Briefly: Selectivity: whole-cell normalized peak current of NMDA receptor GluN1a/2A. The following applies: 16 µM compound, HEK293t, −60 mV. The procedure:
(§1) To evaluate the selectivity of CIC-1 and CIC-2 derivatives, their effects on GluN1a/2A and GluN1a/2B of the NMDA receptors were tested. The normalized peak current responses of the subunits alone and with CIC-1 and CIC-2 were determined (Figure 4).
(§2) Figure 4 The inhibitory actions of Isoxazole-4-carboxamide derivatives on the whole-cell currents mediated by GluA2, GluA2/3 AMPA receptor subtypes and GluN1a/2A, […] receptor subtypes. (a) represents data for CIC-1 and CIC-2 compounds. AMPA- and NMDA-induced currents (black bars) are then compared to currents recorded in the presence of 16 µM CIC compounds (white bars). Panels (b–e) show representative traces of whole-cell current responses to a 1 ms administration of 10 mM glutamate for the subunits. The traces show normalized responses for glutamate alone (black) and glutamate in combination with CIC compounds (color-coded). The recording was performed in HEK293t cells at −60 mV, pH 7.4, and 22 °C. Data present mean ± SD from 3–4 different experiments. *** p < 0.001; and “ns” indicates not significant.

The next assay deals with T2, GluA2/3 (UniProt P19491+P42263).
T2 construct: expressed in transfected cells; host or cells: HEK293T (HEK293) cells, transient co-transfection
T2 sequence (P19491 22-883 isoform P19491-2 limits assumed): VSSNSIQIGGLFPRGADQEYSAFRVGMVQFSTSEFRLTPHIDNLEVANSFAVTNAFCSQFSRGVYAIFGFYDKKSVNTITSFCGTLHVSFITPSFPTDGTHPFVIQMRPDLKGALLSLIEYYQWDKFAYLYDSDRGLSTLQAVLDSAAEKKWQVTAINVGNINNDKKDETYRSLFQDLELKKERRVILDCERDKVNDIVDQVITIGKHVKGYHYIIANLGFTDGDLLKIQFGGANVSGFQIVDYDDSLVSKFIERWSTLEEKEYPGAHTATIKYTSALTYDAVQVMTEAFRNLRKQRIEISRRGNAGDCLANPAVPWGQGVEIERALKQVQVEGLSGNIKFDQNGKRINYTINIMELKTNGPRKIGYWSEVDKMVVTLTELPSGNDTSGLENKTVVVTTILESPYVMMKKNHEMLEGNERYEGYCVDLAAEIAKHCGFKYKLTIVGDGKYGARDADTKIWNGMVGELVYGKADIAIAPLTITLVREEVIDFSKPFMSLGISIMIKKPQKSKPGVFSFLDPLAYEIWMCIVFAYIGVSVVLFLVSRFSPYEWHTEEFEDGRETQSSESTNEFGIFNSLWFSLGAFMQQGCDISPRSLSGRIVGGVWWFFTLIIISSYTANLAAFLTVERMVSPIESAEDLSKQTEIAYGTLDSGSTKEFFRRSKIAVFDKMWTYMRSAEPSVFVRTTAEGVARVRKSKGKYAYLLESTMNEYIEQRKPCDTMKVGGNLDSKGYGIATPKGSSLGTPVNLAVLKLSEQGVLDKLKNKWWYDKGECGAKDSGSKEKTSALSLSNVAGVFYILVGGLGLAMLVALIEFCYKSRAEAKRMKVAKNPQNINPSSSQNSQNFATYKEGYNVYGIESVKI
T2 sequence (P42263 29-894 isoform P42263-2 limits assumed): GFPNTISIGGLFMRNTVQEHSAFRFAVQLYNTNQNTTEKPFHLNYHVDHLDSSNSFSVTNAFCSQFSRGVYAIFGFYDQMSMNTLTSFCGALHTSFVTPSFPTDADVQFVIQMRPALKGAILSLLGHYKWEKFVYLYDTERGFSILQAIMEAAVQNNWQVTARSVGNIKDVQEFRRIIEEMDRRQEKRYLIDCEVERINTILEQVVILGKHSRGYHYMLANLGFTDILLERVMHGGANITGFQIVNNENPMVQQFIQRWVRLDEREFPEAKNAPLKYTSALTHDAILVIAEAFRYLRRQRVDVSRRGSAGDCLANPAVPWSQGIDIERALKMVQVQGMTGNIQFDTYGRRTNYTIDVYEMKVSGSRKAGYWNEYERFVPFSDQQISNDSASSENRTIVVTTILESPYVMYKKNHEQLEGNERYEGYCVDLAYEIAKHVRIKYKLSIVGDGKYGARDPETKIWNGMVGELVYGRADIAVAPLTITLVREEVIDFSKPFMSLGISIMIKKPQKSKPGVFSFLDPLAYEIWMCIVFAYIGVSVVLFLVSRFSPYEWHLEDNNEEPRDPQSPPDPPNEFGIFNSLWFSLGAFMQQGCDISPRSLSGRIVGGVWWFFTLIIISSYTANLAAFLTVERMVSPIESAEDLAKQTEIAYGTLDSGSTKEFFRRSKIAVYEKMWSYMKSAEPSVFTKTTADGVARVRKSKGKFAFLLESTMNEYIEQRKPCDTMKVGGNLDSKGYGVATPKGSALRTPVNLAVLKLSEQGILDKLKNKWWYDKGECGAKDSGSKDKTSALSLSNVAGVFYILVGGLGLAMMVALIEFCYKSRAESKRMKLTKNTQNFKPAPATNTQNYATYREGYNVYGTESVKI
The assay can be described thus: Whole-cell patch clamp recordings of heteromeric GluA2/3 AMPA receptor currents and kinetics in transfected HEK293t cells. The following applies: for Amplitude (peak whole-cell current in presence of compound): 16 µM compound co-applied with agonist, HEK293t, −60 mV, pH 7.4, 22 °C; for Amplitude (peak whole-cell current in presence of compound) / A/AI (amplitude ratio, glutamate alone / with compound) / t deact (weighted deactivation time constant) / t des (weighted desensitization time constant) / Amplitude, applying glutamate alone after compound: mean ± SD; for Amplitude (peak whole-cell current in presence of compound) / A/AI (amplitude ratio, glutamate alone / with compound) / Amplitude, applying glutamate alone after compound: n = 10; for A/AI (amplitude ratio, glutamate alone / with compound): 16 µM compound; for t deact (weighted deactivation time constant): 10 mM glutamate for 1 ms; for t deact (weighted deactivation time constant) / t des (weighted desensitization time constant): with compound; for t des (weighted desensitization time constant): 10 mM glutamate for 500 ms; for Amplitude, applying glutamate alone after compound: glutamate alone after the compound; for Increase of deactivation time constant (τdeac): versus control. The source says: (§3) The AMPA receptor subunits utilized in this study were of the flip isoform. The flip variant of the GluA2 subunit was originally provided by S. F. Heinemann (Salk Institute, La Jolla, CA, USA) in a pBlueScript plasmid. This plasmid was subsequently sub-cloned into a pRK vector to enable expression in HEK293 cells, which were sourced from Sigma, Germany. Additionally, the unedited version of GluA2 (R607Qjj, flip isoform) and enhanced green fluorescent protein (EGFP), both contained in pRK5 vectors, were generously supplied by P. H. Seeburg (Max Planck Institute for Medical Research, Heidelberg, Germany). Chemical-mediated ways induced transfection. GluA2 homomers were expressed into HEK293 cells by the co-transfection of 1 μg GluA2 plasmid with an equal amount of GFP expression vectors (1:1 ratio) into the cells. In addition, co-transfection was conducted for heteromeric GluA2/3 subunits at a ratio of 1:1.2 for optimum expression. For post-transfection experiments, cells were plated in 10% fetal calf serum and antibiotics in DMEM in Petri plates. These cultures were maintained under carefully controlled conditions—37 °C and 5% CO2 within a humidified incubator. The selection of cells for recordings was based on fluorescence intensity. Highly GFP-positive cells were identified and isolated for further analysis, ensuring precise targeting of transfected populations.
(§4) Whole-cell patch clamp recordings were performed on HEK293t cells 36–48 h after transfection. Experiments were conducted at 22 °C, maintaining a holding potential of −60 mV, using an Integrated Patch Amplifier (IPA) from Sutter Instruments (Novato, CA, USA). Data acquisition was managed with SutterPatch Software v. 1.1.1 (Sutter Instruments), employing a sampling rate of 10 kHz and setting the low-pass filter at 2 kHz. […] The external solution contained 150 mM NaCl, 2.8 mM KCl, 0.5 mM MgCl2, 2 mM CaCl2, and 10 mM HEPES, adjusted to a pH of 7.4 using NaOH. The internal pipette solution was composed of 110 mM CsF, 30 mM CsCl, 4 mM NaCl, 0.5 mM CaCl2, 10 mM trypsin-EDTA solution B (0.25%), 0.05% EDTA, and 10 mM HEPES, with the pH adjusted to 7.2 using CsOH.
(§5) A dual-barrel glass pipette (theta tube) was employed for the rapid delivery of glutamate and other solutions. The theta tube was attached to a high-speed piezoelectric solution exchange system (Automate Scientific, Berkeley, CA, USA). To assess the efficiency of solution exchange, open-tip potentials were measured by applying solutions with different ionic compositions after the patch was expelled from the pipette. The time required for a 10–90% change in the solution was generally less than […].
(§6) Data analysis was performed with Igor Pro8.04 software (Wave Metrics, Inc., Portland, OR, USA). AMPA receptor deactivation and desensitization kinetics were measured by applying 10 mM glutamate for 1 ms and 500 ms, respectively. The currents from the AMPA receptor were fitted to a double-exponential model to quantify deactivation and desensitization time constants measured from the double-exponential fits. The weighted tau (τw) is calculated as: τw = (τf × af) + (τs × as), where τf and τs are the time constants of fast and slow exponential components and af and as represent their relative amplitudes.
(§7) Data are presented as the mean ± standard deviation (SD). The total number of HEK293 cells engaged was n = 10. The experimental groups were compared to the wild type using a one-way analysis of variance (ANOVA). Statistical significance was assessed using p values: p < 0.05 (*) indicated significance, p < 0.01 (**) indicated high significance, and p < 0.001 (***) indicated very high significance. The value “ns” indicates non-significance. Concentration–response relationships were modeled using the Hill equation with the resulting combined plots via GraphPad Prism software (version 6.01, GraphPad Software). The data presented are the means from 3–4 experimental replicates. […]
(Patch clamp records ionic current or voltage across a cell membrane.)

Another assay has as its target T3, GluN1a/2B (Homo sapiens, UniProt Q05586+Q13224).
T3 construct: expressed in transfected cells; host or cells: HEK293t cells
Briefly: Selectivity: whole-cell normalized peak current of NMDA receptor GluN1a/2B. The settings on record: 16 µM compound, HEK293t, −60 mV. The procedure:
as §1, §2

Another assay concerns the target T4, GluA2 (Rattus norvegicus, UniProt P19491).
T4 construct: expressed in transfected cells; host or cells: HEK293T (HEK293) cells, transient co-transfection with a separate EGFP vector
Briefly: Whole-cell patch clamp recordings of homomeric GluA2 AMPA receptor currents and kinetics in transfected HEK293t cells. The following applies: for Amplitude (peak whole-cell current in presence of compound): 16 µM compound co-applied with agonist, HEK293t, −60 mV, pH 7.4, 22 °C; for Amplitude (peak whole-cell current in presence of compound) / A/AI (amplitude ratio, glutamate alone / with compound) / t deact (weighted deactivation time constant) / t des (weighted desensitization time constant) / Amplitude, applying glutamate alone after compound: mean ± SD; for Amplitude (peak whole-cell current in presence of compound) / A/AI (amplitude ratio, glutamate alone / with compound) / Amplitude, applying glutamate alone after compound: n = 10; for A/AI (amplitude ratio, glutamate alone / with compound): 16 µM compound; for t deact (weighted deactivation time constant): 10 mM glutamate for 1 ms; for t deact (weighted deactivation time constant) / t des (weighted desensitization time constant): with compound; for t des (weighted desensitization time constant): 10 mM glutamate for 500 ms; for Amplitude, applying glutamate alone after compound: glutamate alone after the compound; for Increase of deactivation time constant (τdeac): versus control.
Description: as §3, §4, §5, §6, §7

Setting [1] is: concentration–response fit, read-out: Log IC50 (converted).
[2] abbreviates: inhibition of whole-cell peak current, concentration–response, Hill fit, read-out: IC50.
Where [3] appears, read: versus glutamate alone, one-way ANOVA.

T4 sequence (P19491 22-883 isoform P19491-2 limits assumed): as the sequence (P19491 22-883 isoform P19491-2 limits assumed) above
T3 sequence (Q13224 27-1484, other chains not shown): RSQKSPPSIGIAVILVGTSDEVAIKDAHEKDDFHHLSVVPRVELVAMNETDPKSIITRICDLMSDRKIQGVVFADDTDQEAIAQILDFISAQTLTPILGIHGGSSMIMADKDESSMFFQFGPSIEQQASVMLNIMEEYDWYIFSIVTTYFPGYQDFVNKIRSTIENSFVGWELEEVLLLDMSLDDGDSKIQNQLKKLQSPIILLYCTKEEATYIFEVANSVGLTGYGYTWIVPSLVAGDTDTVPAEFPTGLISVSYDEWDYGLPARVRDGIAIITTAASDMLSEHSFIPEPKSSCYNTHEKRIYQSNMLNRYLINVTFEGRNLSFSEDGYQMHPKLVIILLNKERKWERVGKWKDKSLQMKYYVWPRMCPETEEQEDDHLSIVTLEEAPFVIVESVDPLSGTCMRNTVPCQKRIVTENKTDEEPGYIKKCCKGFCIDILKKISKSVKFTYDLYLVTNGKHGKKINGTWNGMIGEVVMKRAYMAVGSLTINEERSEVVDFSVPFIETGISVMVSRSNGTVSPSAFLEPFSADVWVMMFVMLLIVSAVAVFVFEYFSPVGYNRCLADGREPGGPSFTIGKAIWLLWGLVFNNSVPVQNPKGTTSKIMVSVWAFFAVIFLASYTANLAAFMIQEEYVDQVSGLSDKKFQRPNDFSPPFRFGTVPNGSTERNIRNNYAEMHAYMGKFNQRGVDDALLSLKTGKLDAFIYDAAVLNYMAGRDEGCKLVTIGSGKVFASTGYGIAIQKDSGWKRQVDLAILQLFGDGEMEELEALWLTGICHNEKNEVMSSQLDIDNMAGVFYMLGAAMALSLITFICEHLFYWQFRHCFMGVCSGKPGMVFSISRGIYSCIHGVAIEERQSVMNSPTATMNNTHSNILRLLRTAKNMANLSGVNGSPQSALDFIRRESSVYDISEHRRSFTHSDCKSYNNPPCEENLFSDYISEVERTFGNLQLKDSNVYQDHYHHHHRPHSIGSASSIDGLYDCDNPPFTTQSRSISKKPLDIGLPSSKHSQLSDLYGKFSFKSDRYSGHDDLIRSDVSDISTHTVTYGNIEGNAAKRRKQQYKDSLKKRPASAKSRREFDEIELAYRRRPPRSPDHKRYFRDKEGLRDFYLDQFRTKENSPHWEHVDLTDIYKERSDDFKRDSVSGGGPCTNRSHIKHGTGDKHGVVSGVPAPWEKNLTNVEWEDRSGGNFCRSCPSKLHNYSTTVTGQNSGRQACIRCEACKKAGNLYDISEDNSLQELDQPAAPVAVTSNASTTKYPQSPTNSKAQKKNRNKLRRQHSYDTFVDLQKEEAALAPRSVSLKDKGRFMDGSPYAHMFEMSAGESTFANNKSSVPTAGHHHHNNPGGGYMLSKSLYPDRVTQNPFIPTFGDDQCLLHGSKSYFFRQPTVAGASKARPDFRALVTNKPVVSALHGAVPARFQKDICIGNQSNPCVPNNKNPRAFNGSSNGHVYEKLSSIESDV

Consider `CSc1ccc(NC(=O)c2c(-c3c(Cl)cccc3Cl)noc2C)cc1` [CIC-1, 3-(2,6-dichlorophenyl)-5-methyl-N-(4-(methylthio)phenyl)isoxazole-4-carboxamide], for which the “Effect on normalized peak current” value at GluN1a/2A was “statistically not significant”. Moreover, at GluA2/3, the “Amplitude (peak whole-cell current in presence of compound)” value came to 73 ± 5 pA; the “A/AI (amplitude ratio, glutamate alone / with compound)” value is given as 8.02±0.49; the “t deact (weighted deactivation time constant)” value (“t deact” below) was determined as 8.1 ± 0.4 ms; the “t des (weighted desensitization time constant)” value (shortened to “t des”) turned out to be 0.7 ± 0.2 ms. At GluA2/3, the “Amplitude, applying glutamate alone after compound” value (“Amplitude, applying glutamate alone” for short) amounted to 562±28 pA and the “Increase of deactivation time constant (τdeac)” value (from here on “Increase”) is “approximately 4 fold”. In addition, the concentration for half-maximal inhibition (IC50) on GluA2/3 (setting [1]) was 3.09 µM. Also, the “Effect on normalized peak current” value on GluN1a/2B is on record as “statistically not significant”. Moreover, at GluA2, the “Amplitude (peak whole-cell current in presence of compound)” value stood at 156 ± 7 pA; the “A/AI (amplitude ratio, glutamate alone / with compound)” value turned out to be 8.11±0.41; the “t deact” value amounted to 8.3 ± 0.3 ms; the “t des” value stood at 0.6 ± 0.1 ms. At GluA2, the “Amplitude, applying glutamate alone” value is listed as 1231±85 pA and the “Increase” value was “approximately 4 fold”. The 50% inhibitory concentration (IC50) on GluA2 (setting [1]) is 3.02 µM. Also, the IC50 on GluA2 (setting [2]) came out at 3.03 µM.

As for `COc1cc(NC(=O)c2c(-c3c(Cl)cccc3Cl)noc2C)c(OC)cc1Cl` [CIC-2, N-(4-chloro-2,5-dimethoxyphenyl)-3-(2,6-dichlorophenyl)-5-methylisoxazole-4-carboxamide], the “Effect on normalized peak current” value at GluN1a/2A and on GluN1a/2B was “statistically not significant” in each case. For the same compound, the entries for the “Amplitude (peak whole-cell current in presence of compound)” value at GluA2/3 and on GluA2 were 75 ± 6 pA and 160 ± 12 pA, respectively. The “A/AI (amplitude ratio, glutamate alone / with compound)” value at GluA2/3 is reported as 7.65±0.45; on GluA2, 7.79±0.42. Moreover, the figures for the “t deact” value on GluA2/3 and at GluA2 were 7.8 ± 0.4 ms and 7.9 ± 0.3 ms, respectively. Moreover, the “t des” value at GluA2/3 worked out at 0.8 ± 0.1 ms; on GluA2, 0.7 ± 0.1 ms. Also, the half-inhibitory concentration (IC50) at GluA2/3 (setting [1]) was 3.31 µM; at GluA2/3 (setting [2]), 3.32 µM; on GluA2 (setting [1]) it was 3.16 µM; on GluA2 (setting [2]) it was 3.18 µM. In addition, the “Amplitude, applying glutamate alone” value is 552±44 pA at GluA2/3 and 1213±94 pA at GluA2. Moreover, the “Increase” value at GluA2/3 and on GluA2 was “approximately 4 fold” each time. Moreover, the “Effect on desensitization kinetics (τdes), in words” value on GluA2/3 (setting [3]) and at GluA2 (setting [3]) was “accelerating desensitization” in each case.
